According to BindingDB's records for patent US20260028328 (Chiesi Farmaceutici, 2026):

What was measured:
[1] = target: Epithelial discoidin domain-containing receptor 1 (Homo sapiens, UniProt Q08345); assay: Binding Assays
Experimental: (§1) DDR1 and DDR2 binding assays were performed using Life Technologies LanthaScreen™ Europium Kinase Binding assay. The compounds were incubated with 5 nM DDR1 (Carna Biosciences) or 5 nM DDR2 (Life Technologies) for 1 h at rt in white 384-well OptiPlate (PerkinElmer), containing 20 nM or 10 nM Kinase Tracer 178 respectively and 2 nM Europium labelled anti-GST antibody (Life Technologies) in assay buffer (50 mM HEPES pH 7.5, 10 mM MgCI2, 1 mM EGTA and 0.01% BRIJ35). The ratio of fluorescence emission 665 nm/615 nm after excitation at 340 nm was obtained using the Tecan Spark 20M plate reader. IC50 values were determined in GraphPad Prism 7.0 software, using 4 parameter model: log(inhibitor) vs. response. IC50 values were converted in Ki using the Cheng-Prusoff equation (Ki=IC50/(1+[Tracer]/Kd).

[2] = target: T1, Discoidin domain-containing receptor 2 (Homo sapiens, UniProt Q16832); assay: Binding Assays
T1 sequence (Q16832 whole entry): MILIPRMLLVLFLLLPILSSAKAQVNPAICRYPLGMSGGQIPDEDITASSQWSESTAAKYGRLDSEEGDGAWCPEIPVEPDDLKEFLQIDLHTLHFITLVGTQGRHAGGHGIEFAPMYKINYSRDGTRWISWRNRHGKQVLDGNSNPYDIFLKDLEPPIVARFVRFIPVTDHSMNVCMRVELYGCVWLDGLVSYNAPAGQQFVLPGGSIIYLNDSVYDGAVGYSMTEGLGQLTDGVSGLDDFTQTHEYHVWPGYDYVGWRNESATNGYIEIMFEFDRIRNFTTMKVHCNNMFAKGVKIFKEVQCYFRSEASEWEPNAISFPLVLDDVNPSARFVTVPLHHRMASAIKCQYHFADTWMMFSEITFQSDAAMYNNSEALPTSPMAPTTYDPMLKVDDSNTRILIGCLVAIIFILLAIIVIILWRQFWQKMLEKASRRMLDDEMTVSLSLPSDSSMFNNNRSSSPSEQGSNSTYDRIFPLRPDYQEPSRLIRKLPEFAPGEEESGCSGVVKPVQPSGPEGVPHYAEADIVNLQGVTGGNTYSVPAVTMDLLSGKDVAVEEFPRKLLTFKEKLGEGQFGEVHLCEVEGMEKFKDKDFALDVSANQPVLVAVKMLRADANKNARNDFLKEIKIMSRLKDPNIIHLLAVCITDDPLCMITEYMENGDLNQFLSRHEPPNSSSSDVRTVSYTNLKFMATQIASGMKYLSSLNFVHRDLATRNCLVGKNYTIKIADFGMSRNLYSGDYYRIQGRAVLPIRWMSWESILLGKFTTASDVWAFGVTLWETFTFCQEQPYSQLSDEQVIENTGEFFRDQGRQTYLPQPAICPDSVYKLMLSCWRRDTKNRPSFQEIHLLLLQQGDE
Experimental: as §1

Sequence of Epithelial discoidin domain-containing receptor 1 (Q08345 whole entry, the tested form may be a part): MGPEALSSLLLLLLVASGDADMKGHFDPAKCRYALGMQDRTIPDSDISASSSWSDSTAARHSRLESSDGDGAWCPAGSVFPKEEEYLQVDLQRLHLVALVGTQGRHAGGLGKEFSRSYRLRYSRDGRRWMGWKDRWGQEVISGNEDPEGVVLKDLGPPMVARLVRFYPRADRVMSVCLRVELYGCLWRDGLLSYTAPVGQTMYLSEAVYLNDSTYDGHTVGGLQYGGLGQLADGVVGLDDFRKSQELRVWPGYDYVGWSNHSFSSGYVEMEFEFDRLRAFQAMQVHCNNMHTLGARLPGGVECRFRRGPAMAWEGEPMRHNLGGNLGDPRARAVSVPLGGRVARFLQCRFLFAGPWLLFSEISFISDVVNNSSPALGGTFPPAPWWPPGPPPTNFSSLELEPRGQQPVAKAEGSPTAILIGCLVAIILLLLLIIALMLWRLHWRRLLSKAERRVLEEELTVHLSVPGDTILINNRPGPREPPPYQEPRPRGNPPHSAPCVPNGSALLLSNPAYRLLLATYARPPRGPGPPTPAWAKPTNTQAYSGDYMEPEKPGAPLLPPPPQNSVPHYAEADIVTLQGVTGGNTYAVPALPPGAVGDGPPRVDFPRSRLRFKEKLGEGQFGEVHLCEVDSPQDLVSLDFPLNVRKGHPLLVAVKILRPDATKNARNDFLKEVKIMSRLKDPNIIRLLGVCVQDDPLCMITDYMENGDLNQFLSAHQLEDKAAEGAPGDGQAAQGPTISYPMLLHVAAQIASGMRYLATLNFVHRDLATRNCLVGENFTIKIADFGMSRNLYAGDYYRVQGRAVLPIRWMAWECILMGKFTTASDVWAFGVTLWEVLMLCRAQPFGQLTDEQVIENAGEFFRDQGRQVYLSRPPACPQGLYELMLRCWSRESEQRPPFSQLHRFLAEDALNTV

Cc1ccc(C(=O)Nc2cncc(C(F)(F)F)c2)cc1OC1CN(c2cncc(C(N)=O)c2)C1 [US20260028328, Example 139]
Ki [1]: < 5 nM

Cc1ccc(C(=O)Nc2cncc(C(F)(F)F)c2)cc1SC1CN(c2cncnc2)C1 [US20260028328, Example 177]
Ki [2]: 25 to 100 nM | Ki [1]: 5 to 25 nM
